Where two headings read alike, the source gives them in different places.
Columns and labels:
[1] = molecular target: T1, eeAChE (AChE from electric eel) (Electrophorus electricus, UniProt O42275); experiment: biochemical; conditions: incubation time 25 min; mean ± SD, at least three independent experiments
T1 construct: AChE (E.C. 3.1.1.7, Type V-S, lyophilized powder, from electric eel, 1000 unit); purchased Sigma-Aldrich Type V-S; host or cells: electric eel
Experimental: (§1) AChE (E.C. 3.1.1.7, Type V-S, lyophilized powder, from electric eel, 1000 unit), BChE (E.C. 3.1.1.8, from equine serum), ATCI, BTCI, and DTNB were purchased from Sigma-Aldrich. To the experimental group in a 96-well plate, 10 μl AChE or BChE (final concentration is 0.04 U/ml), 25 μl tested compounds, and 65 μl PBS buffer was sequentially added. For the control group, all components were in accordance with those in the experimental group, except that 25 μl tested compounds were replaced by equal volume of PBS. For the blank group, only 100 μl PBS was added. […] The calculation formula is: inhibition rate% = (ODcontrol-ODtest)/(ODcontrol-ODblank)*100.

[2] = molecular target: T2, eqBChE (BChE from equine serum) (Equus caballus, UniProt P81908); experiment: biochemical
T2 construct: BChE (E.C. 3.1.1.8, from equine serum); purchased Sigma-Aldrich; host or cells: equine serum
T2 sequence (P81908 whole entry): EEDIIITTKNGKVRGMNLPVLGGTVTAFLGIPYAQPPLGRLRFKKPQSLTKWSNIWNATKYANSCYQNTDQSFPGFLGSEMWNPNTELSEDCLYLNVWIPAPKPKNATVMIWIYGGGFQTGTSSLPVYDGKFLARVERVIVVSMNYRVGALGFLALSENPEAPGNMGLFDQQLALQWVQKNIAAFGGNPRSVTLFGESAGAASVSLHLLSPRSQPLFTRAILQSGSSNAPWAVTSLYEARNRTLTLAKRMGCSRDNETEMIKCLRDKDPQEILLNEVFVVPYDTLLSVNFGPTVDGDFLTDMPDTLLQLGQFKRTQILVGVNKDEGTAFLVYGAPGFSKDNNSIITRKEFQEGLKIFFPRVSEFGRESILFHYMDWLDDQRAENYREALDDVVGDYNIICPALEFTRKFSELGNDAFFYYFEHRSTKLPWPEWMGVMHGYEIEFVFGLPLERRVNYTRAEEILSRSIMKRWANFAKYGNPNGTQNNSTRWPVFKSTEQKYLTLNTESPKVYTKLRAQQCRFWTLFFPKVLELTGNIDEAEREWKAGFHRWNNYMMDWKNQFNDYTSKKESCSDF
Experimental: as §1
3. Screen of the most appropriate incubation time for compounds and
In order to find the most appropriate incubation time for compounds and enzyme, to verify whether the incubation time of 25 min is appropriate, and to further improve […]
time, made the inhibition rate-incubation time curves (Figure S1), and calculated the IC50 values of these compounds under different incubation time (Table S1).

eqBChE = molecular target: T3, eqBChE (Equus caballus, UniProt P81908); experiment: Inhibition kinetics of butyrylcholinesterase (reversibility, Lineweaver-Burk, Ki replot); assay type: biochemical
T3 construct: BChE (E.C. 3.1.1.8, from equine serum); purchased Sigma-Aldrich; host or cells: equine serum
T3 sequence (P81908 whole entry): as above
Source text: According to the type of interaction between inhibitor and enzyme, there are three reaction types including the reversible, irreversible, and pseudo-irreversible reactions in the cholinesterase catalyzed reaction, and each type has its representative characteristics. By studying the reaction rate changes in enzymatic reactions in the presence of inhibitors, the mechanism of action of inhibitors on enzymes, viz the inhibition type could be determined, which is of great significance for further structural modification and the discovery of compounds with better enzyme inhibitory activity. To reveal the interaction between synthesized inhibitors and eq BChE, we initially chose compound 3p as an example and studied the reversibility of enzymatic reaction in the presence of inhibitor. When the final concentration of substrate BTCI was fixed at 0.2 mM, we deduced from Figure 2A that both compound 3p increased the enzymatic reaction rate to varying degrees with the increase of enzyme concentration. When both the concentrations of eq BChE and BTCI remained constant, the rate of the enzymatic reaction decreased with the increase of inhibitor concentration.
In the process of reversible inhibition reaction, inhibitors can be divided into competitive, non-competitive, mixed competitive, and anti-competitive inhibitors according to the effect of inhibitors and substrate on enzyme ([Liu et al., 2022]). […] For compound 3p, the Km values increased while the Vmax values decreased compared with those in the absence of inhibitors, which was not in accordance with the characteristics of competitive, non-competitive, and anti-competitive inhibitors. Therefore, non-competitive in combination with competitive inhibition and/or non-competitive in combination with anti-competitive inhibition maybe existed in the reaction systems of compound 3p with enzyme (Figure 2B). […] However, the binding affinity of compounds 3p with the free enzyme or the substrate-enzyme complex was different. […]

[3] = incubation time 25 min, mean ± SD, at least three independent experiments, read-out: IC50 eqBChE
[4] = incubation time 5 min, read-out: IC50 eqBChE under different incubation time
[5] = incubation time 10 min, read-out: IC50 eqBChE under different incubation time
[6] = incubation time 15 min, read-out: IC50 eqBChE under different incubation time
[7] = incubation time 45 min, read-out: IC50 eqBChE under different incubation time
[8] = incubation time 65 min, read-out: IC50 eqBChE under different incubation time
[9] = incubation time 85 min, read-out: IC50 eqBChE under different incubation time

T1 sequence (O42275 24-633): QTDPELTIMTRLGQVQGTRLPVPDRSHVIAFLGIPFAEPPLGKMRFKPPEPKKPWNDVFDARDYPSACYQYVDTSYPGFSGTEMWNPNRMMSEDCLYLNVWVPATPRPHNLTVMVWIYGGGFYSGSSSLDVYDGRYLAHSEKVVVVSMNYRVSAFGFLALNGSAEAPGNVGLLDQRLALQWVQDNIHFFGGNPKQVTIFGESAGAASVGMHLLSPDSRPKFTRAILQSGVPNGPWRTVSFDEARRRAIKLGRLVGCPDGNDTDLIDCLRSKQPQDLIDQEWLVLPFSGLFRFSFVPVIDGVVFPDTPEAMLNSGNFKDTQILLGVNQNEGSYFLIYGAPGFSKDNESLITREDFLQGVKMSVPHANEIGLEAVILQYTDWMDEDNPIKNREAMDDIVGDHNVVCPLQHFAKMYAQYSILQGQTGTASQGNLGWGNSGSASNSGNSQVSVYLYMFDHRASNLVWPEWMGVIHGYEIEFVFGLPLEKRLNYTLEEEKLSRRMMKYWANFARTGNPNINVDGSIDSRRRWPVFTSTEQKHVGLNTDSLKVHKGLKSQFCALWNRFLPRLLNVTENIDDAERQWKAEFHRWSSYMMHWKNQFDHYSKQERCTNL

Compound | IC50 [1] [µM] | IC50 [2, 3] [µM] | other results
Cc1cccc(-n2cccc2)c1 [Compound 3c] | > 50 | > 50 | 
COC(=O)c1ccc(-n2cccc2)cc1 [Compound 3h] | > 50 | > 50 | 
COc1cccc(-c2ccn(-c3ccccc3)c2)c1 [Compound 3q] | > 50 | > 50 | 
COc1ccccc1-c1ccn(-c2ccccc2)c1 [Compound 3o] | > 50 | 5.37 ± 0.36 | IC50 [2, 4]: 4.8 ± 0.38 µM; IC50 [2, 5]: 5.06 ± 1.2 µM; IC50 [2, 6]: 6.87 ± 0.6 µM; IC50 [2, 7]: 6.67 ± 0.61 µM; IC50 [2, 8]: 6.83 ± 0.24 µM; IC50 [2, 9]: 7.63 ± 0.77 µM
Cc1cc(-n2cccc2)no1 [Compound 3k] | > 50 | > 50 | 
c1ccc2nc(-n3cccc3)cnc2c1 [Compound 3l] | > 50 | > 50 | 
c1ccc(-n2cccc2)nc1 [Compound 3j] | > 50 | > 50 | 
c1ccc(-c2ccn(-c3ccccc3)c2)cc1 [Compound 3n] | > 50 | > 50 | 
FC(F)(F)c1cccc(-c2ccn(-c3ccccc3)c2)c1 [Compound 3r] | > 50 | > 50 | 
Clc1ccccc1-n1cccc1 [Compound 3b] | > 50 | > 50 | 
c1ccc(Cc2ccn(-c3ccccc3)c2)cc1 [Compound 3m] | > 50 | > 50 | 
Cc1ccccc1-n1cccc1 [Compound 3a] | > 50 | > 50 | 
CSc1ccc(-n2cccc2)cc1 [Compound 3f] | > 50 | > 50 | 
Cc1cccc(C)c1-n1cccc1 [Compound 3i] | > 50 | > 50 | 
Brc1cccc(-n2cccc2)c1 [Compound 3d] | > 50 | > 50 | 
CC(C)c1ccc(-n2cccc2)cc1 [Compound 3e] | > 50 | > 50 | 
Brc1ccc(-n2cccc2)cc1 [Compound 3g] | > 50 | > 50 | 
Clc1ccccc1-c1ccn(-c2ccccc2)c1 [Compound 3p] | > 50 | 1.71 ± 0.087 | Inhibition mode (eqBChE; Lineweaver-Burk plots): mixed competitive inhibition; Reversibility of inhibition (eqBChE; rate vs. enzyme concentration, BTCI 0.2 mM): reversible; Ki (eqBChE; replot of Lineweaver-Burk slopes vs. inhibitor concentration): 0.281 µM; IC50 [2, 4]: 0.6 ± 0.1 µM; IC50 [2, 5]: 0.48 ± 0.24 µM; IC50 [2, 6]: 1.95 ± 0.13 µM; IC50 [2, 7]: 2.4 ± 0.11 µM; IC50 [2, 8]: 3.27 ± 0.49 µM; IC50 [2, 9]: 3.2 ± 0.092 µM
c1ccc(-c2ccc(-c3ccn(-c4ccccc4)c3)cc2)cc1 [Compound 3s] | > 50 | 3.76 ± 0.25 | IC50 [2, 4]: 5.87 ± 0.23 µM; IC50 [2, 5]: 5.95 ± 0.3 µM; IC50 [2, 6]: 6.05 ± 0.65 µM; IC50 [2, 7]: 4.41 ± 0.15 µM; IC50 [2, 8]: 4.21 ± 0.075 µM; IC50 [2, 9]: 4.38 ± 0.18 µM
